Measurements: patent US20160081936A1 (MURRAY AND POOLE ENTERPRISES LIMITED, priority 2013, published 2016)

Key:
[1] = system: patients with a first episode of recurrent pericarditis; settings: conventional treatment with aspirin alone, or the same plus colchicine 0.5-1.0 mg/d for 6 months; cited from earlier work
[2] = system: patients with a first episode of acute pericarditis; settings: conventional treatment with aspirin, or the same plus colchicine 0.5 to 1.0 mg/day for 3 months; p=0.004; cited from earlier work
[3] = system: patients with stable coronary disease; settings: 0.5 mg/day in addition to statins and other standard secondary prevention therapies; Nidorf et al., JACC 2013; cited from earlier work
[4] = system: patients with stable coronary disease; assay: LoDoCo trial: colchicine 0.5 mg/day added to standard secondary prevention therapy; assay type: in vivo, human
Method: This study is described in PCT/AU2013/001261 and is hereby incorporated in its entirety by reference.
All outcomes were evaluated by an experienced adjudicator blinded to the treatment allocation.
Patients with a history of bypass surgery were only eligible if they had undergone bypass surgery more than 10 years before, or had angiographic evidence of graft failure or had undergone stenting since their bypass surgery. All patients signed informed consent before randomization.
The randomization sequence was computer generated, kept concealed from the investigators at all times and was managed by a research assistant who had no involvement in the evaluation or management of study patients. […] Patients who were intolerant to therapy remained in the study, and were followed in the usual manner and included in the primary intention to treat analysis.
The drug was dispensed by their usual chemist, and if requested, patients were reimbursed for the cost of these scripts. All other treatments were continued as usual.
Patient compliance with treatment and outcome data were collected at routine follow up visits and at the time of any unplanned hospital admission. An acute coronary syndrome (ACS) was defined as either (a) Acute Myocardial Infarction (AMI), as evidenced by acute ischemic chest pain associated with a rise in serum troponin above the upper limit of normal or (b) Unstable Angina (UA), as evidenced by a recent acceleration of the patient's angina unassociated with a rise in serum troponin but associated with angiographic evidence of a change in the patient's coronary anatomy. (Unstable Angina Braunwald classification types IB and IIB). The ACS was characterized as being stent-related if there was evidence of significant in-stent stenosis or acute stent thrombosis. Out of Hospital Cardiac Arrest was defined as either a sudden death as evidenced on the patient's death certificate, or a non-fatal out of hospital cardiac arrest, defined as a recovery from sudden collapse associated with documented asystole, ventricular tachycardia or ventricular fibrillation. Noncardioembolic ischemic stroke was defined as CT or MRI proven ischemic stroke adjudged by the treating neurologist as not being due to atrial fibrillation or intracranial hemorrhage.
The primary efficacy outcome was the composite, ACS, fatal or non-fatal out of hospital cardiac arrest or non-cardio-embolic ischemic stroke. Secondary outcomes were (a) individual components of the primary outcome, and (b) the components of ACS unrelated to stent disease.
The pre-specified study duration was a minimum follow up of two years in all patients. Accordingly the study was closed on May 31, 2012. During May, all living patients were contacted by phone to collect compliance and outcome data from the last date of follow-up.
Summary statistics, including mean and standard deviation were calculated for all baseline characteristics by treatment arm. All time to event outcomes were calculated in days by subtracting the date of randomization from either: (1) the date of event or death; or (2) the trial termination date for those patients not experiencing the defined event. As pre-specified, the primary efficacy analysis was based on the intention-to-treat principle. The intention-to-treat analysis included all randomized subjects and all events during the time from randomization to the trial termination. Trial termination date was fixed as May 31, 2012. A secondary pre-specified on-treatment analysis was also performed, based on patients who were both tolerant and compliant to therapy beyond the first month of randomization.
The time-to-first-event for all outcomes is presented using a Kaplan-Meier plot. […] The secondary outcomes were analysed similarly.

Row | Compound | recurrence rate, actuarial rates at 18 months [1] [%] | recurrence rate at 18 months [2] [%] | prevention of cardiovascular events in patients with stable coronary disease [3] | deaths ([4]; colchicine group (282), all of non-cardiac causes, 10 in control group) [patients] | primary outcome, number needed to treat ([4]; intention to treat) | ACS unrelated to stent disease associated with UA, patients ([4]; intention to treat, 0.5 mg/day) [%] | ACS unrelated to stent disease associated with an AMI, patients ([4]; intention to treat, 0.5 mg/day) [%] | patients presenting with an ACS ([4]; intention to treat, 0.5 mg/day) [%] | patients presenting with an ACS unrelated to stent disease ([4]; intention to treat, 0.5 mg/day) [%] | primary outcome (composite of ACS, fatal or non-fatal out of hospital cardiac arrest or non-cardio-embolic ischemic stroke), patients with event ([4]; intention to treat, 0.5 mg/day, median follow up 36 months) [%] | events in patients compliant and tolerant to therapy beyond the first month ([4]; on-treatment analysis, 0.5 mg/day) [%] | out of hospital cardiac arrest and non-cardio-embolic ischemic stroke ([4]; treatment group vs control)
1 | CC(=O)Oc1ccccc1C(=O)O [aspirin] | 50.6 | 32.3 |  |  |  |  |  |  |  |  |  | 
2 | COc1cc2c(c(OC)c1OC)-c1ccc(OC)c(=O)cc1[C@@H](NC(C)=O)CC2 [colchicine, N[5,6,7,9-tetrahydro-1,2,3,10-tetratmethoxy 9-oxobenzo[a]heptalen-7-yl],(S)-acetamide] | 24.0 | 10.7 | appeared effective | 4 | 11 | 1.8 | 1.4 | 4.6 | 3.2 | 5.3 | 4.5 | reduced
